Assay results taken from patent US20240261422A1, “ANTHRACYCLINE ANTIBODY CONJUGATES” (SEAGEN INC., priority 2021, published 2024).
Read-outs that look alike come from different tables or passages of the source.

Columns and labels:
786-O, MDR + RCC = test: In vitro growth inhibition (CellTiter-Glo, 96 h), 786-O; format: cell-based; conditions: for IC50: Homo sapiens, read-out: IC50 (nM) 786-O, MDR + RCC; for IC50 (ng/mL) 786-O, MDR + RCC: cOKT9 ADCs, average DAR 8, 96 h
Method: (§1) Cell culture of cell lines as listed in Table 2-4 in log-phase growth were seeded in 96-well plates and grown for 24 h in cell culture media containing 150 μL RPMI 1640 supplemented with 20% FBS (see Mol. Cancer Ther., 2016, 15(5), 938-945 and Mol. Cancer Ther., 2018, 17(8), 1752-1760). Serial dilutions of free drugs or antibody-drug conjugates (final concentration between 0.004 nM and 1 μM) in cell culture media were prepared at 4× working concentrations; 50 μL of each dilution was added to the 96-well plates. Following addition of the drug or ADC, the cells were incubated with test articles (free drugs or ADCs) for 4 d at 37° C. After 96 h, growth inhibition was assessed by CellTiter-Glo® (Promega, Madison, WI) and luminescence was measured on a plate reader (brand, model).
(§2) Cells were treated for 96 hours with anthracycline analogues listed in Table 2, and then assessed for viability as described in the procedures as described above. […] ND denotes value not determined with that assay for the specified compound.
(§3) ADCs were prepared by full reduction of interchain disulfides to reveal 8-conjugatable cysteines/antibody, and subsequent alkylation with the maleimide-containing drug-linkers (Compounds 14, 18, 21, 24, 29, 32, 33, 34, and 48) according to the procedures described in Mol. Cancer Ther. 2018, 17(8). 1752-1760. Conjugates of antibody cOKT9 were prepared with anthracycline linkers. Cancer cell lines were treated with cOKT9 ADCs (average DAR of 8:1) for 96 h and then assessed for viability. […] ND denotes value not determined with that assay for the specified compound.

HL60, AML = test: In vitro growth inhibition (CellTiter-Glo, 96 h), HL60; format: cell-based; conditions: for IC50: Homo sapiens, read-out: IC50 (nM) HL60, AML; for IC50 (ng/mL) HL60, AML: cOKT9 ADCs, average DAR 8, 96 h
Method: as §1, §2, §3

L540cy, HL = test: In vitro growth inhibition (CellTiter-Glo, 96 h), L540cy; format: cell-based; conditions: for IC50: L540cy, 96 h, read-out: IC50 (nM) L540cy, HL
Method: as §1, §2, §3
(§4) Anti-CD30 ADCs comprising cAC10 antibody conjugated to drug-linkers 24, 32, 29, 18, 14, and 48 with an average DAR of 4 were prepared for evaluation on a CD30-expressing lymphoma cell line panel. […] Anti-CD30 conjugates bearing the PNU linkers 24, 32, 29, 18, and 14 were active on L540cy, DEL, and Karpas299 lymphoma cell lines, and conjugate 48 was active on L540cy and DEL cell lines, with IC50s ranging from 0.2-4 ng/mL.

BxPC3, PancCa = test: In vitro growth inhibition (CellTiter-Glo, 96 h), BxPC3; format: cell-based; conditions: for IC50: Homo sapiens, read-out: IC50 (nM) BxPC3, PancCa; for IC50 (ng/mL) BxPC3, PancCa: cOKT9 ADCs, average DAR 8, 96 h
Method: as §1, §2, §3

HL60/RV, MDR + AML = test: In vitro growth inhibition (CellTiter-Glo, 96 h), HL60/RV; format: cell-based; conditions: for IC50: Homo sapiens, read-out: IC50 (nM) HL60/RV, MDR + AML; for IC50 (ng/mL) HL60/RV, MDR + AML: cOKT9 ADCs, average DAR 8, 96 h
Method: as §1, §2, §3

[1] = tested on: L540cy, 786-O, BxPC3, HL60, HL60/RV; test: cells; conditions: 96 h, read-out: IC50 values on the cancer lines tested
Ramos, CD30 − NHL = test: In vitro growth inhibition (CellTiter-Glo, 96 h), Ramos; format: cell-based; conditions: cAC10 (anti-CD30) ADCs, average DAR 4
Method: as §1, §4

DEL, ALCL = test: In vitro growth inhibition (CellTiter-Glo, 96 h), DEL; format: cell-based; conditions: cAC10 (anti-CD30) ADCs, average DAR 4
Method: as §1, §4

[2] = tested on: L540cy, 786-O, BxPC3, HL60, HL60/RV; conditions: 24 h
[3] = tested on: DEL/BVR anaplastic large cell lymphoma xenograft; test: DEL/BVR MDR+, CD30+ anaplastic large cell lymphoma xenograft model; format: in vivo, SCID mice; conditions: cAC10 S239C ADCs, average DAR 2; 3 mg/kg single dose i.p.
Method: (§5) All experiments were conducted in concordance with the Animal Care and Use Committee in a facility fully accredited by the Association for Assessment and Accreditation of Laboratory Animal Care. Efficacy experiments were conducted using the L540cy Hodgkin's lymphoma and DEL/BVR anaplastic large cell lymphoma xenograft models (Mol. Cancer Ther., 2018, 17(8), 1752-1760). Tumor cells, as a cell suspension, were implanted subcutaneously in immune-compromised SCID female mice. Upon tumor engraftment, the mice were randomized into study groups when the average tumor volume reached about 100 mm^3. The ADCs were dosed once via intraperitoneal injection. Tumor volume as a function of time was determined using the formula (L×W2)/2. Animals were euthanized when tumor volumes reached 1000 mm^3.
Anti-CD30 conjugates bearing PNU drug-linkers 29, 18, and 14 were further evaluated in a DEL/BVR MDR+, CD30+ anaplastic large cell lymphoma xenograft model. cAC10 antibody with the S239C mutation is conjugated to the PNU drug linkers with an average DAR of 2 to minimize the effects of ADC pharmacokinetics. Tumor-bearing mice were administered a 3 mg/kg single dose intraperitoneally (i.p.) of test article once the average tumor volume reached 100 mm^3 (typically on day 4). […] However, the conjugate comprising PNU linker 29 appeared to be non-efficacious, and only provided minimal tumor growth delay (FIG. 2). Untreated mice were used as negative controls.

Karpas299, ALCL = test: In vitro growth inhibition (CellTiter-Glo, 96 h), Karpas299; format: cell-based; conditions: cAC10 (anti-CD30) ADCs, average DAR 4
Method: as §1, §4

L428, MDR + HL = test: In vitro growth inhibition (CellTiter-Glo, 96 h), L428; format: cell-based; conditions: cAC10 (anti-CD30) ADCs, average DAR 4
Method: as §1, §4

[4] = tested on: L540cy Hodgkin's lymphoma xenograft; test: L540cy CD30+ Hodgkin lymphoma xenograft model; format: in vivo, SCID mice; conditions: cAC10 S239C ADCs, average DAR 2; single dose i.p. at about 100 mm^3
Method: as §5
Anti-CD30 conjugates bearing PNU drug-linkers 29, 18, and 14 were evaluated in a CD30-expressing xenograft model as described above. cAC10 antibody with the S239C mutation is conjugated to the PNU drug linkers with an average DAR of 2 to minimize the effects of ADC pharmacokinetics. Tumor-bearing mice were administered a single dose intraperitoneally (i.p.) of test article once the average tumor volume reached 100 mm^3 (typically on day 8). Untreated mice were used as negative controls.

[5] = 786-0, anthracycline free drugs, 96 h
[6] = HL-60, anthracycline free drugs, 96 h
[7] = BXPC-3, anthracycline free drugs, 96 h
[8] = cAC10 (anti-CD30) ADCs, average DAR 4
[9] = cOKT9 ADCs, average DAR 8, 96 h

| SMILES | IC50 (786-O, MDR + RCC; [5]) | IC50 (HL60, AML; [6]) | IC50 (L540cy, HL; anthracycline free drugs) | IC50 (BxPC3, PancCa; [7]) | IC50 (HL60/RV, MDR + AML; [6]) | IC50 [1] | IC50 (ng/mL) 786-O, MDR + RCC (786-O, MDR + RCC) | IC50 (ng/mL) Ramos, CD30 − NHL (Ramos, CD30 − NHL) | IC50 (ng/mL) HL60, AML (HL60, AML) | IC50 (ng/mL) L540cy, HL (L540cy, HL; [8]) | IC50 (ng/mL) L540cy, HL (L540cy, HL; [9]) | IC50 (ng/mL) BxPC3, PancCa (BxPC3, PancCa) | IC50 (ng/mL) DEL, ALCL (DEL, ALCL) | IC50s of cOKT9 conjugates [2] | IC50 (ng/mL) Karpas299, ALCL (Karpas299, ALCL) | IC50 (ng/mL) HL60/RV, MDR + AML (HL60/RV, MDR + AML) | IC50 (ng/mL) L428, MDR + HL (L428, MDR + HL) | other results |
| --- | --- | --- | --- | --- | --- | --- | --- | --- | --- | --- | --- | --- | --- | --- | --- | --- | --- | --- |
| COc1cccc2c1C(=O)c1c(O)c3c(c(O)c1C2=O)C[C@@](O)(C(=O)CO)C[C@@H]3O[C@H]1C[C@H](N)[C@H](O)[C@H](C)O1 [Compound 1, Doxorubicin, reference compound] | 10 to 100 nM | 10 to 100 nM | 10 to 100 nM | 100 to 1000 nM | 100 to 1000 nM | 0.013 to 0.39 µM |  |  |  |  |  |  |  |  |  |  |  |  |
| COc1cccc2c1C(=O)c1c(O)c3c(c(O)c1C2=O)C[C@@](O)(C(=O)O)C[C@@H]3O[C@H]1C[C@H](N)[C@H](O)[C@H](C)O1 [Compound 2, (2S,4S)-4-(((2R,4S,5S,6S)-4-amino-5-hydroxy-6-methyltetrahydro-2H-pyran-2-yl)oxy)-2,5,12-trihydroxy-7-methoxy-6,11-dioxo-1,2,3,4,6,11-hexahydrotetracene-2-carboxylic acid] | > 1000 nM | > 1000 nM | > 1000 nM | > 1000 nM | > 1000 nM | > 1 µM |  |  |  |  |  |  |  |  |  |  |  |  |
| COc1cccc2c1C(=O)c1c(O)c3c(c(O)c1C2=O)C[C@@](O)(C(=O)CO)C[C@@H]3O[C@H]1C[C@H](N2CCO[C@H](OC)C2)[C@H](O)[C@H](C)O1 [Compound 3, Nemorubicin, reference compound] |  |  |  |  |  | 0.002 to 0.003 µM |  |  |  |  |  |  |  |  |  |  |  | IC50 (786-O, MDR + RCC; 786-0, 96 h): < 10 nM; IC50 (L540cy, HL): < 10 nM; IC50 (BxPC3, PancCa; BXPC-3, 96 h): < 10 nM |
| COc1cccc2c1C(=O)c1c(O)c3c(c(O)c1C2=O)C[C@@](O)(C(=O)O)C[C@@H]3O[C@H]1C[C@H]2[C@H](O[C@@H]3[C@@H](OC)OCCN32)[C@H](C)O1 [Compound 6, (2S,4S)-2,5,12-trihydroxy-7-methoxy-4-(((1S,3R,4aS,9S,9aR,10aS)-9-methoxy-1-methyloctahydro-1H-pyrano[4′,3′:4,5]oxazolo[2,3-c][1,4]oxazin-3-yl)oxy)-6,11-dioxo-1,2,3,4,6,11-hexahydrotetracene-2-carboxylic acid] | < 10 nM |  | < 10 nM | 10 to 100 nM |  | 0.005 to 0.019 µM |  |  |  |  |  |  |  |  |  |  |  | IC50 (HL60, AML; HL-60, 96 h): 10 to 100 nM; IC50 (HL60/RV, MDR + AML; HL-60, 96 h): 10 to 100 nM |
| COc1cccc2c1C(=O)c1c(O)c3c(c(O)c1C2=O)C[C@@](O)(C(=O)NCCNC(=O)CCN1C(=O)C=CC1=O)C[C@@H]3O[C@H]1C[C@H]2[C@H](O[C@@H]3[C@@H](OC)OCCN32)[C@H](C)O1 [Compound 14, (2S,4S)—N-(2-(3-(2,5-dioxo-2,5-dihydro-1H-pyrrol-1-yl)propanamido)ethyl)-2,5,12-trihydroxy-7-methoxy-4-(((1S,3R,4aS,9S,9aR,10aS)-9-methoxy-1-methyloctahydro-1H-pyrano[4′,3′:4,5]oxazolo[2,3-c][1,4]oxazin-3-yl)oxy)-6,11-dioxo-1,2,3,4,6,11-hexahydrotetracene-2-carboxamide] |  |  |  |  |  |  | A (IC50<10 ng/mL) | E (IC50≥500 ng/mL) | C (100 ng/mL≤IC50<1000 ng/mL) | B (1 ng/mL≤IC50<10 ng/mL) | A (IC50<10 ng/mL) | A (IC50<10 ng/mL) | B (1 ng/mL≤IC50<10 ng/mL) | 1 to 150 ng/mL | A (IC50<1 ng/mL) | D (IC50≥1000 ng/mL) | B (1 ng/mL≤IC50<10 ng/mL) | antitumor activity, DEL/BVR xenograft (FIG. 2) [3]: efficacious in suppressing tumor growth; antitumor activity, L540cy xenograft (FIG. 1) [4]: active with a majority of animals in a complete regression |
| COc1cccc2c1C(=O)c1c(O)c3c(c(O)c1C2=O)C[C@@](O)(C(=O)N(C)CCN(C)C(=O)OCc1ccc(NC(=O)[C@H](C)NC(=O)[C@@H](NC(=O)CCN2C(=O)C=CC2=O)C(C)C)cc1)C[C@@H]3O[C@H]1C[C@H]2[C@H](O[C@@H]3[C@@H](OC)OCCN32)[C@H](C)O1 [Compound 32, 4-((S)-2-((S)-2-(3-(2,5-dioxo-2,5-dihydro-1H-pyrrol-1-yl)propanamido)-3-methylbutanamido)propanamido)benzyl methyl(2-((2S,4S)-2,5,12-trihydroxy-7-methoxy-4-(((1S,3R,4aS,9S,9aR,10aS)-9-methoxy-1-methyloctahydro-1H-pyrano[4′,3′:4,5]oxazolo[2,3-c][1,4]oxazin-3-yl)oxy)-N-methyl-6,11-dioxo-1,2,3,4,6,11-hexahydrotetracene-2-carboxamido)ethyl)carbamate] |  |  |  |  |  |  | C (100 ng/mL≤IC50<1000 ng/mL) | D (100 ng/mL≤IC50<500 ng/mL) | B (10 ng/mL≤IC50<100 ng/mL) | C (10 ng/mL≤IC50<100 ng/mL) | B (10 ng/mL≤IC50<100 ng/mL) | B (10 ng/mL≤IC50<100 ng/mL) | B (1 ng/mL≤IC50<10 ng/mL) | 1 to 150 ng/mL | B (1 ng/mL≤IC50<10 ng/mL) | C (100 ng/mL≤IC50<1000 ng/mL) | E (IC50≥500 ng/mL) | activity of cOKT9 conjugates on multidrug resistant HL60/RV (HL60/RV, MDR + AML; cOKT9 ADCs DAR 8, result in words): active |
